The subject of assay [1] is NCI-H226 human mesothelioma cell line. In words: Cell growth inhibition test (CellTiter-Glo), NCI-H226. It counts as cell-based. The conditions noted are these: NCI-H226 cells. The procedure:
The cell growth for the compounds prepared in Examples was measured by CellTiter-Glo® Luminescent Cell Viability (Promega, Catalog #G7571) method using NCI-H226 (addexbio), NCI-H28 (Korea Cell Line Bank) and MSTO-211H (elabscience) human mesothelioma cell lines. This evaluation method is a method in which when luciferase enzyme is activated by ATP flowing out from living cells, it reacts with a luciferin substrate, and the enzyme activity at this time is measured to confirm cell viability.
Specifically, NCI-H226, NCI-H28, and MSTO-211H cells were prepared in 100 μL of cell culture medium (RPMI medium, 10% FBS, 1% P/S, 4.5 g/L D-Glucose, 2.383 g/L HEPES Buffer, L-Glutamine, 1.5 g/L Sodium Bicarbonate, 110 mg/L Sodium pyruvate) in a white clear bottom 96-well microplate. The prepared plate was incubated in a 5% CO2 incubator at 37° C. for 24 hours, and then the previously prepared compounds of Examples were finally treated at concentrations of 0.001, 0.01, 0.1, 1, and 10 μM, which was repeated three times for all treatment solutions. The plates treated with the compounds of Examples were incubated in a 5% CO2 incubator at 37° C. 100 μL/well of the substrate aqueous solution containing luciferin was added to a white clear-bottom 96 well microplate, thereby initiating an enzyme reaction. The reaction was performed at room temperature in the dark for 10 minutes, and the luminescence was measured using a Flexstation3 multi-mode microplate reader. In accordance with the instructions for the CellTiter-Glo™ Luminescednt Cell Viability, the luciferase enzyme activity, which represents the amount of ATP, was measured by a chemiluminescence method, and the inhibitory activity of the compounds according to the present invention was calculated. The results of each compound were analyzed using Microsoft Excel, and the IC50 values were calculated using GraphPad Prism software.
For orientation: Cellular ATP, detected with luciferase, serves as a proxy for viable cell number.

Assay [2] concerns transcription factor TEAD. In words: Activity inhibition test of transcription factor TEAD (ONE-Glo luciferase, TEAD reporter-MCF7 cell line). The conditions noted are these: Homo sapiens; TEAD Reporter-MCF7 cells, 24 hours treatment, luciferase luminescence. It counts as cell-based. The procedure:
The transcription factor TEAD activity of the compounds prepared in Examples was measured by the ONE-Glo™ Luciferase assay (Promega, Catalog #E6110) method using the Hippo Pathway TEAD reporter-MCF7 recombinant cell line (BPS Bioscience, Catalog #60618).
Specifically, the TEAD Reporter-MCF7 cell line contains the firefly luciferase gene whose expression is regulated under the control of TEAD response elements in the MCF7, which is a human breast cancer cell line. In the cell line, a non-phosphorylated YAP/TAZ exists in the nucleus in a non-stressed condition, which continuously induces expression of the luciferase reporter.
TEAD Reporter-MCF7 cells were prepared in 100 μL of cell culture medium (MEM medium, 10% FBS, 1% P/S, 400 μg/mL Geneticin, 1% […], 1 mM NA pyruvate, 10 μg/mL Insulin) in a white clear bottom 96-well microplate. The prepared plate was incubated in a 5% CO2 incubator at 37° C. for 24 hours, and then the previously prepared compounds of Examples were finally treated at concentrations of 0.001, 0.01, 0.1, 1, and 10 µM, which were repeated three times for all treatment solutions. The plates treated with the compounds of Examples were incubated in a 5% CO2 incubator at 37° C. for 24 hours. 100 μL/well of the substrate aqueous solution containing luciferin was added to a white clear-bottom 96 well microplate, thereby initiating an enzyme reaction. The reaction was performed at room temperature for 5 minutes, and the luminescence (integration time 1000 ms) was measured using a Flexstation3 multi-mode microplate reader. In accordance with the instructions for the ONE-Glo™ Luciferase Assay, the luciferase enzyme activity, which represents the activity of the transcription factor TEAD, was measured by a chemiluminescence method, and the inhibitory activity of the compound according to the present invention was calculated. The results of each compound were analyzed using Microsoft Excel, and the IC50 values were calculated by GraphPad Prism software.

Structures are written as SMILES.

As usually defined, the IC50 is the midpoint of a concentration-inhibition curve. Read a high IC50 as weaker potency in that assay. `C=CC(=O)Nc1cnc(Nc2ccc(C(F)(F)F)cc2)c(-c2cn(C)cn2)c1` [Example 41, N-(5-(1-methyl-1H-imidazol-4-yl)-6-((4-(trifluoromethyl)phenyl)amino)pyridin-3-yl)acrylamide]: the IC50 in assay [1] was 6 nM; in assay [2], 10 nM.

With `C=CC(=O)Nc1cnc(NCCc2nccs2)c(/C=C/c2ccc(F)cc2)c1` [Example 27, (E)-N-(5-(4-fluorostyryl)-6-((2-(thiazol-2-yl)ethyl)amino)pyridin-3-yl)acrylamide], the IC50 amounted to 985 nM in assay [1] and 30 nM in assay [2].

As to `C=CC(=O)Nc1ccc(Nc2ccc(C(F)(F)F)cc2)c(-c2ccn(C)n2)c1` [Example 42, N-(3-(1-methyl-1H-pyrazol-3-yl)-4-((4-(trifluoromethyl)phenyl)amino)phenyl)acrylamide], the half-maximal inhibitory concentration (IC50) in assay [1] was determined as 4.7 nM; in assay [2] it was 7 nM.

Turning to `C=CC(=O)Nc1ccc(Nc2ncc(C(F)(F)F)cc2F)c(-c2ccn(C)n2)c1` [Example 56, N-(4-((3-fluoro-5-(trifluoromethyl)pyridin-2-yl)amino)-3-(1-methyl-1H-pyrazol-3-yl)phenyl)acrylamide], the IC50 in assay [1] came to 11 nM; in assay [2], 5 nM.

Take `C=CC(=O)Nc1ccc(Nc2ccc(Cl)cn2)c(-c2cn(C)cn2)c1` [Example 50, N-(4-((5-chloropyridin-2-yl)amino)-3-(1-methyl-1H-imidazol-4-yl)phenyl)acrylamide]: the IC50 worked out at 10.4 nM in assay [1] and 88 nM in assay [2].

Regarding `C=CC(=O)Nc1ccc(Nc2ccc(Br)c(C)n2)c(-c2cn(C)cn2)c1` [Example 48, N-(4-((5-bromo-6-methylpyridin-2-yl)amino)-3-(1-methyl-1H-imidazol-4-yl)phenyl)acrylamide], the IC50 was found to be 10.3 nM in assay [1] and 45 nM in assay [2].

As to `C=CC(=O)Nc1ccc(Nc2ccc(OC(F)(F)F)cc2)c(-c2cn(C)cn2)c1` [Example 45, N-(3-(1-methyl-1H-imidazol-4-yl)-4-((4-(trifluoromethoxy)phenyl)amino)phenyl)acrylamide], the IC50 in assay [1] is 33.8 nM; in assay [2] it was 113 nM.

Take `C=CC(=O)Nc1ccc(NCCc2nccs2)c(/C=C/c2ccc(F)cc2)c1` [Example 23, (E)-N-(3-(4-fluorostyryl)-4-((2-(thiazol-2-yl)ethyl)amino)phenyl)acrylamide]: the IC50 was determined as 55 nM in assay [1] and 48 nM in assay [2].

On to `C=CC(=O)Nc1ccc(Nc2ccc(Cl)cc2)c(-c2cn(C)cn2)c1` [Example 47, N-(4-((4-chlorophenyl)amino)-3-(1-methyl-1H-imidazol-4-yl)phenyl)acrylamide], for which the IC50 in assay [1] is 3.3 nM; in assay [2], 3.9 nM.

As for `C=CC(=O)Nc1ccc(Nc2ncc(C(F)(F)F)cc2Cl)c(-c2cn(C)cn2)c1` [Example 9, N-(4-((3-chloro-5-(trifluoromethyl)pyridin-2-yl)amino)-3-(1-methyl-1H-imidazol-4-yl)phenyl)acrylamide], the IC50 in assay [1] was determined as 26 nM; in assay [2], 80 nM.

As for `C#Cc1ccc(Nc2ccc(NC(=O)C=C)cc2-c2ccn(C)n2)nc1` [Example 34, N-(4-((5-ethynylpyridin-2-yl)amino)-3-(1-methyl-1H-pyrazol-3-yl)phenyl)acrylamide], the IC50 was 31.4 nM in assay [1] and 5.7 nM in assay [2].

As to `C=CC(=O)Nc1ccc(Nc2cc(Cl)c(Cl)cn2)c(-c2ccncn2)c1` [Example 16, N-(4-((4,5-dichloropyridin-2-yl)amino)-3-(pyrimidin-4-yl)phenyl)acrylamide], the IC50 turned out to be 148 nM in assay [1] and 69.1 nM in assay [2].

Regarding `C=CC(=O)Nc1ccc(NCc2ccc(F)cc2)c(-c2ccccc2)c1` [Example 11, N-(6-((4-fluorobenzyl)amino)-[1,1′-biphenyl]-3-yl)acrylamide], the IC50 in assay [1] came to 129 nM; in assay [2], 28.2 nM.

The values above are taken from patent US20250074889A1, “Novel Aminobenzene Derivative Having Cancer Cell Growth Inhibitory Effect, and Preventive or Therapeutic Pharmaceutical Composition Containing Same as Active Ingredient” (Daewoong Pharmaceutical Co., Ltd., priority 2022, published 2025).
